Measurements reported in PubChem BioAssay AID651987 (The Scripps Research Institute Molecular Screening Center, 2013).
Activity calls are given as the source filed them.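 Rule for the calls: active = reversible inhibitor in any panel, blocking the enzyme before filtration but under 50% inhibition after two or more filtrations; inactive = irreversible inhibitor in every panel.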

Tests used:
[1] = molecular target: Acyl-protein thioesterase 1 (Homo sapiens) (UniProt O75608); assay: LYPLA1 and LYPLA2 inhibitor binding mode – cell lysate, gel-based ABPP, fluorescence, gel filtration, HEK293T proteome, mechanism study, late-stage follow-up (AID 651987); conditions: HEK293T soluble proteome
[2] = molecular target: Acyl-protein thioesterase 2 (Homo sapiens) (UniProt O95372); assay: as above; conditions: HEK293T soluble proteome
[3] = LYPLA1, after 1 gel filtration, stronger effect = higher value
[4] = LYPLA1, stronger effect = higher value, concentration not given here
[5] = LYPLA2, after 1 gel filtration, stronger effect = higher value
[6] = LYPLA2, stronger effect = higher value, concentration not given here
[7] = LYPLA1, after 2 gel filtrations, stronger effect = higher value
[8] = LYPLA2, after 2 gel filtrations, stronger effect = higher value

Chain of Acyl-protein thioesterase 2 (Homo sapiens) (O95372 whole entry, looked up): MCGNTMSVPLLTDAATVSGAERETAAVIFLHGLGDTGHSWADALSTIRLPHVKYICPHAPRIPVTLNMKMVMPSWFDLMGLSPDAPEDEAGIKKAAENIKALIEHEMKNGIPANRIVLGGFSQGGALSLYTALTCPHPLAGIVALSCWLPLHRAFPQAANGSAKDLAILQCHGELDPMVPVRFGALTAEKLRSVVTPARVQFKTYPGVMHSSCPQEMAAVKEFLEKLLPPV
Chain of Acyl-protein thioesterase 1 (Homo sapiens) (O75608 whole entry, looked up): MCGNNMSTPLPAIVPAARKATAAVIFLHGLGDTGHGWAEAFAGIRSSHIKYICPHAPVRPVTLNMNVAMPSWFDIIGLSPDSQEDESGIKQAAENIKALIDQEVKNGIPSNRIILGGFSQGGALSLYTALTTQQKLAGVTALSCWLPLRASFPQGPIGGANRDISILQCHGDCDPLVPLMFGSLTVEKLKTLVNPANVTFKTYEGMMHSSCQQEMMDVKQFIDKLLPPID

inhibition [1, 3] [%] | inhibition ([1]; LYPLA1, after 3 gel filtrations, stronger effect = higher value) [%] | inhibition [1, 4] | inhibition [2, 5] [%] | inhibition ([2]; LYPLA2, after 3 gel filtrations, stronger effect = higher value) [%] | inhibition [2, 6] | inhibition [1, 7] [%] | inhibition [2, 8] [%] | Compound
100 | 100 | 100% (inactive) | 100 | 100 | 100% (inactive) |  |  | O=C(N1CCCCC1)n1ccnn1
0 |  | 0% (inactive) | 100 |  | 100% | 0 | 0 | COc1ccc(N2CCN(C(=O)c3cc4c(s3)-c3ccccc3S(=O)(=O)C4)CC2)cc1
75 |  | 100% | 0 |  | 0% (inactive) | 0 | 0 | O=C(CN1CCN(C(=O)c2ccco2)CC1)Nc1cc(C(F)(F)F)ccc1Cl
